These results are taken from ChEMBL document CHEMBL4130444, “1,4-Naphthoquinones as inhibitors of Itch, a HECT domain-E3 ligase, and tumor growth suppressors in multiple myeloma” (Eur J Med Chem, 2017).

Assay [1] deals with HCT-116. Put plainly: Antiproliferative activity against human HCT116 cells incubated for 48 hrs by SRB assay. The format is functional. As to conditions: HCT-116, 48 h. (In general: Sulforhodamine B stains cellular protein and so reports cell mass.)
Assay [2] has as its system MDA-MB-231. As to the kind of experiment: Antiproliferative activity against human MDA-MB-231 cells incubated for 48 hrs by SRB assay. The format is functional. As to conditions: MDA-MB-231, 48 h.

Molecules are shown by their SMILES.

As a reminder, the GI50 is the concentration giving 50% growth inhibition. High values mean less potent growth inhibition, low ones more potent growth inhibition. As to `O=C(Nc1ccc2[nH]ncc2c1)c1ccc(CNC2=C(Cl)C(=O)c3ccccc3C2=O)cc1`, the 50% growth inhibitory concentration (GI50) in assay [1] and in assay [2] was greater than 10 µM in each case.

On to `O=C(Nc1ccc(F)cc1)c1ccc(CNC2=C(Cl)C(=O)c3ccccc3C2=O)cc1`, for which the GI50 in assay [1] and in assay [2] was greater than 10 µM throughout.

On to `O=C(Nc1ccc2[nH]cnc2c1)c1ccc(CNC2=C(Cl)C(=O)c3ccccc3C2=O)cc1`, for which the GI50 in assay [1] and in assay [2] was greater than 10 µM each time.

Turning to `O=C(Nc1ccc2cn[nH]c2c1)c1ccc(CNC2=C(Cl)C(=O)c3ccccc3C2=O)cc1`, the GI50 in assay [1] and in assay [2] was greater than 10 µM in each case.

Take `O=C(Nc1nccs1)c1ccc(CNC2=C(Cl)C(=O)c3ccccc3C2=O)cc1`: the GI50 in assay [1] and in assay [2] was greater than 10 µM in each case.

In the case of `O=C(Nc1cccc2ncccc12)c1ccc(CNC2=C(Cl)C(=O)c3ccccc3C2=O)cc1`, the GI50 in assay [1] and in assay [2] was greater than 10 µM throughout.

In the case of `O=C(Nc1nc2ccccc2[nH]1)c1ccc(CNC2=C(Cl)C(=O)c3ccccc3C2=O)cc1`, the GI50 in assay [1] was greater than 10 µM; in assay [2], 8.9 µM.

Take `O=C(Nc1ccccc1)c1ccc(CNC2=C(Cl)C(=O)c3ccccc3C2=O)cc1`: the GI50 in assay [1] and in assay [2] was greater than 10 µM each time.

As to `O=C(Nc1ccc2[nH]ccc2c1)c1ccc(CNC2=C(Cl)C(=O)c3ccccc3C2=O)cc1`, the GI50 in assay [1] and in assay [2] was greater than 10 µM in each case.

On to `O=C(Nc1ccccn1)c1ccc(CNC2=C(Cl)C(=O)c3ccccc3C2=O)cc1`, for which the GI50 in assay [1] and in assay [2] was greater than 10 µM in each case.

Regarding `Nc1ccn(C(=O)c2ccc(CNC3=C(Cl)C(=O)c4ccccc4C3=O)cc2)n1`, the GI50 in assay [1] and in assay [2] was greater than 10 µM in each case.

As to `O=C(Nc1ccc2ncccc2c1)c1ccc(CNC2=C(Cl)C(=O)c3ccccc3C2=O)cc1`, the GI50 in assay [1] is 6.8 µM; in assay [2] it was greater than 10 µM.

As for `O=C(Nc1cnc2ccccc2c1)c1ccc(CNC2=C(Cl)C(=O)c3ccccc3C2=O)cc1`, the concentration for 50% growth inhibition (GI50) in assay [1] and in assay [2] was greater than 10 µM in each case.

Take `O=C(Nc1cccnc1)c1ccc(CNC2=C(Cl)C(=O)c3ccccc3C2=O)cc1`: the GI50 in assay [1] and in assay [2] was greater than 10 µM throughout.

For `O=C(Nc1cnccn1)c1ccc(CNC2=C(Cl)C(=O)c3ccccc3C2=O)cc1`, the GI50 in assay [1] amounted to 5.5 µM; in assay [2], 9.2 µM.

For `O=C(Nc1cccc2[nH]ccc12)c1ccc(CNC2=C(Cl)C(=O)c3ccccc3C2=O)cc1`, the GI50 in assay [1] and in assay [2] was greater than 10 µM throughout.
